ChEMBL document CHEMBL1201862, “PubChem BioAssay data set” (2004)
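Protocol summary: plate cells (96-well), add compound at 5 concentrations, incubate 48 h, interpolate endpoints linearly. GI50 = concentration required for 50% inhibition of growth.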 Activity calls are given as the source filed them. Cut-off read from the data, not from the text of the source: active = GI50 up to about 1.1 µM and inactive = higher.

Key:
Test in all cases: DTP human tumour cell line panel, 48 h
786-0 = system: 786-0
ACHN = system: ACHN
COLO 205 = system: COLO 205
EKVX = system: EKVX
HOP-62 = system: HOP-62
MCF7 = system: MCF7
NCI-H522 = system: NCI-H522
OVCAR-3 = system: OVCAR-3
SF-295 = system: SF-295
SF-539 = system: SF-539
SK-MEL-28 = system: SK-MEL-28
UACC-257 = system: UACC-257
BT-549 = system: BT-549
NCI-H226 = system: NCI-H226
U-251 = system: U-251
SK-OV-3 = system: SK-OV-3
A498 = system: A498

Measured: GI50

COc1ccc(C2c3cc4c(cc3OC(N3CCCCC3)C2C)OCO4)cc1 (stereo not drawn)
inactive: 786-0 80.2 µM | ACHN 41.2 µM | COLO 205 > 100 µM | EKVX > 100 µM | HOP-62 > 100 µM | MCF7 > 100 µM | NCI-H522 83.6 µM | OVCAR-3 > 100 µM | SF-295 54.6 µM | SF-539 > 100 µM | SK-MEL-28 > 100 µM | UACC-257 > 100 µM

O=C(CN1CCCC1=O)CS(=O)(=O)c1ccccc1
inactive: 786-0 > 100 µM | ACHN > 100 µM | BT-549 > 100 µM | COLO 205 > 100 µM | EKVX > 100 µM | HOP-62 > 100 µM | MCF7 > 100 µM | NCI-H226 > 100 µM | NCI-H522 > 100 µM | OVCAR-3 > 100 µM | SF-295 > 100 µM | SF-539 > 100 µM | SK-MEL-28 > 100 µM | U-251 > 100 µM | UACC-257 > 100 µM

CC1=NC(=Cc2ccc([N+](=O)[O-])cc2)C(=O)N1n1c(-c2ccccc2)nc2ccccc2c1=O
inactive: 786-0 83 µM | BT-549 85.3 µM | COLO 205 46.6 µM | EKVX 45.5 µM | HOP-62 60.1 µM | MCF7 29.1 µM | NCI-H226 95.9 µM | NCI-H522 32.1 µM | SF-295 52 µM | SF-539 67.3 µM | SK-MEL-28 57.9 µM | SK-OV-3 68.9 µM | UACC-257 42.9 µM

O=c1[nH]nc(-c2ccccc2)n1-c1cccc([N+](=O)[O-])c1
inactive: 786-0 > 100 µM | A498 > 100 µM | ACHN > 100 µM | COLO 205 > 100 µM | EKVX > 100 µM | HOP-62 > 100 µM | MCF7 > 100 µM | NCI-H226 > 100 µM | NCI-H522 > 100 µM | OVCAR-3 > 100 µM | SF-295 > 100 µM | SF-539 > 100 µM | SK-MEL-28 > 100 µM | SK-OV-3 > 100 µM | U-251 > 100 µM | UACC-257 > 100 µM

N[C@@H](Cc1ccc2oc3cc(=O)c4ccccc4c-3nc2c1)C(=O)O
inactive: 786-0 > 100 µM | A498 > 100 µM | ACHN 48.2 µM | COLO 205 11.5 µM | EKVX > 100 µM | HOP-62 21.9 µM | MCF7 2.36 µM | NCI-H226 34 µM | NCI-H522 39.7 µM | OVCAR-3 27.2 µM | SF-295 30.4 µM | SF-539 74 µM | SK-MEL-28 62.4 µM | SK-OV-3 > 100 µM | U-251 36.3 µM | UACC-257 18.1 µM

COc1c(C)c(C/C=C(\C)CCCCO)c(OC)c(OC)c1OC
inactive: 786-0 > 100 µM | ACHN > 100 µM | BT-549 > 100 µM | COLO 205 > 100 µM | EKVX > 100 µM | HOP-62 > 100 µM | MCF7 > 100 µM | NCI-H522 > 100 µM | OVCAR-3 > 100 µM | SF-295 48.6 µM | SF-539 > 100 µM | SK-OV-3 > 100 µM | U-251 > 100 µM | UACC-257 > 100 µM

NC(=O)NCCCC(NC(=O)OCCCCCn1ccc(=O)[nH]c1=O)C(=O)O (stereo not drawn)
inactive: 786-0 > 100 µM | ACHN > 100 µM | BT-549 > 100 µM | COLO 205 > 100 µM | EKVX > 100 µM | HOP-62 > 100 µM | MCF7 > 100 µM | NCI-H226 63.2 µM | OVCAR-3 > 100 µM | SF-295 > 100 µM | SF-539 > 100 µM | SK-MEL-28 > 100 µM | SK-OV-3 > 100 µM | U-251 > 100 µM | UACC-257 > 100 µM

[N-]=[N+]=C(C(=O)C(=[N+]=[N-])C(=O)c1ccccc1)C(=O)c1ccccc1
inactive: 786-0 > 100 µM | ACHN > 100 µM | BT-549 > 100 µM | COLO 205 > 100 µM | EKVX > 100 µM | HOP-62 > 100 µM | MCF7 > 100 µM | NCI-H522 > 100 µM | OVCAR-3 > 100 µM | SF-295 > 100 µM | SF-539 > 100 µM | SK-MEL-28 > 100 µM | UACC-257 > 100 µM

CC(=O)NC1C(OCc2ccccc2)OC(CO)C(O)C1OCC(=O)NC(C)C(=O)NC(CCC(=O)OCCNC(=O)c1cccc2cc3ccccc3nc12)C(N)=O (stereo not drawn)
inactive: 786-0 18.7 µM | ACHN 12.3 µM | BT-549 20.3 µM | COLO 205 21.3 µM | EKVX 24.9 µM | HOP-62 24.3 µM | MCF7 25.2 µM | NCI-H226 18.5 µM | NCI-H522 16.8 µM | OVCAR-3 20.5 µM | SF-295 21.4 µM | SK-MEL-28 19.4 µM | SK-OV-3 21.6 µM | U-251 18.4 µM | UACC-257 28.2 µM

CC(=O)OCC12CN(C#N)C3C4COC(CC41)C1(C(=O)N(C)c4ccccc41)C32 (stereo not drawn)
inactive: 786-0 28.3 µM | ACHN 14.3 µM | BT-549 2.64 µM | COLO 205 16.7 µM | EKVX 20.7 µM | HOP-62 24.6 µM | MCF7 19.3 µM | NCI-H226 15.8 µM | NCI-H522 12.1 µM | OVCAR-3 3.58 µM | SF-295 49.1 µM | SK-MEL-28 19.2 µM | SK-OV-3 34.4 µM | U-251 56.1 µM | UACC-257 16.9 µM

C1CCCCC2(CCCCCCCCC3(CCC1)OCCO3)OCCO2
inactive: 786-0 > 100 µM | A498 > 100 µM | ACHN > 100 µM | COLO 205 > 100 µM | EKVX > 100 µM | HOP-62 > 100 µM | MCF7 > 100 µM | NCI-H226 > 100 µM | NCI-H522 > 100 µM | OVCAR-3 > 100 µM | SF-295 > 100 µM | SF-539 > 100 µM | SK-MEL-28 > 100 µM | SK-OV-3 > 100 µM | U-251 > 100 µM | UACC-257 > 100 µM

C#CC(O)/C=C/C(O)CCCC(O)CC#CC(O)C#CC(O)CCCC(O)/C=C/CCCC(=O)CCCCCCCCCCCCCCCC(O)C(O)C#CC(=O)O (stereo not drawn)
inactive: 786-0 > 50 µM | ACHN > 50 µM | COLO 205 > 50 µM | EKVX > 50 µM | HOP-62 > 50 µM | MCF7 > 50 µM | NCI-H226 > 50 µM | NCI-H522 8.41 µM | SF-295 > 50 µM | SK-MEL-28 > 50 µM | SK-OV-3 > 50 µM | U-251 > 50 µM | UACC-257 > 50 µM

CCCCCCCCCCCCCC(=O)O.O=CC(O)C(O)C(OC1OC(CO)C(O)C(O)C1O)C(O)CO (stereo not drawn)
inactive: 786-0 > 100 µM | A498 > 100 µM | ACHN > 100 µM | COLO 205 73.5 µM | HOP-62 44.8 µM | MCF7 > 100 µM | NCI-H226 30.5 µM | NCI-H522 57.4 µM | OVCAR-3 > 100 µM | SF-295 73.1 µM | SF-539 > 100 µM | SK-MEL-28 > 100 µM | SK-OV-3 > 100 µM | U-251 35 µM | UACC-257 > 100 µM
